One block for each compound: values may come before it. Where a SMILES comes first, the peptide text is derived from it. [ ]: non-standard residue; d: D form. The star is where a group is joined. 5FAM = O=C1OC2(c3ccc(O)cc3Oc3cc(O)ccc32)c2ccc(C(=O)*)cc21; pT = C[C@@H](OP(=O)(O)O)[C@H](N)C(=O)O; pS = N[C@@H](COP(=O)(O)O)C(=O)O; Cbz = O=C(OCc1ccccc1)*
Columns and labels:
[1] = test system: FBXW7-mediated protein degradation; experiment: Ratiometric DsRed/EGFP protein level assay of full-length proteins with kinase inhibitors; type: cell-based, HEK293T cells; conditions: for ZMIZ1 level: full-length ZMIZ1, HEK293T + FBXW7, inhibitor 2 µM
Description: (§1) HEK293T cells (purchased from ATCC, CRL-3216) were cultured in Dulbecco’s Modified Eagle’s Medium (DMEM, Gibco, Waltham, MA, USA) containing 10% FBS (Gibco, Cat# 10500064), 100 µg/mL Pen/strep (Sigma, P0781) and Amphotericin B (Thermo Fisher, 15290026) at 37 °C in an atmosphere of 5% CO2. Approximately 90,000 cells were plated in 24-well Greiner bio-one plates (#662-160). The next day cells were transfected with Lipofectamine 3000 reagent (L3000001, Invitrogen, Waltham, MA, USA) using the Opti-MEM reduced serum media (Gibco, 31985062). The transfection media was changed with complete DMEM after 4–6 h of transfection. Cells in a 24-well plate were transfected with 500 ng of plasmid DNA in total, for co-transfection each plasmid construct was used in 250 ng amount. For western blots, cells were washed in ice-cold PBS and harvested in SDS loading buffer and then subjected to SDS-PAGE. The samples were then transferred to nitrocellulose membrane. Primary antibodies were the following: Anti-V5 (Invitrogen; 1:5000 dilution), anti-FLAG (Sigma #F1804; 1:5000 dilution), anti-cMyc (#2276, Cell signaling, Danvers, MA, USA) 1:1000 dilution) and anti-tubulin (Sigma #T6199; 1:50,000 dilution). Secondary antibodies (IRDye® 800CW Goat anti-Mouse IgG, LiCOR #926-32210 and IRDye® 680CW Goat anti-Mouse IgG, LiCOR #926-68070; 1:5000 dilution) were used according to the recommendation of the manufacturer and blots were analyzed by Odyssey CLx imaging system (Li-Cor). Kinase inhibitors were used in 2 µM concentration added 6 h before protein level measurements: GSK3—CHR99021 (#S2924, Selleckchem, Munich, Germany), ERK1/2—SCH772984 (Selleckchem, #S7101), p38—SB202190 (Sigma-Aldrich, #S7067), and JNK—JNK-IN-8 (Selleckchem, #S4901). MG132 proteosomal inhibitor (Merck, #474790) was used in 10 µM concentration and cycloheximide (# 239763, Calbiochem, San Diego, CA, USA) was used in 100 µg/mL concentration. HEK293T cells were washed with 500 μL ice-cold PBS twice and gently collected using a pipette 48 h after transfection. The suspension was centrifuged at 500× g for 10 min at 4 °C. After centrifugation, the cell pellet was resuspended in 110 µL ice cold PBS and the fluorescence signal for EGFP (Excitation 485 nm; Emission 515 nm) and DsRed (Excitation 550 nm; Emission 580 nm) was measured in Corning 384-well microplate (#4514) using a plate reader (CytationTM 3, BioTek Instruments, Winooski, VT, USA).

FBXW7 = experiment: Ratiometric EGFP/DsRed protein degradation assay with degron probes; type: cell-based, human; conditions: HEK293T + FBXW7, MG132, EGFP/DsRed ratio
Text: In order to be able to test putative phosphodegron motifs, a ratiometric protein level monitoring method was adapted to monitor MAPK controlled FBXW7 mediated protein degradation. Briefly, intact DsRed and an EGFP-chimera were expressed in HEK293T cells in equal amounts from an expression plasmid, giving an EGFP/DsRed fluorescence ratio close to one under non-degrading conditions. EGFP was fused to a probe comprised of a putative degron sequence and a known MAPK binding docking motif. EGFP signal is expected to diminish faster than DsRed in cells with more FBXW7 if the probe responded to degradation.
We started out from an intentionally general consensus motif of FBXW7 degrons, inspired by the liberal [TS]P..[TS]P pattern defined for yeast Cdc4 substrates, and scanned the human disordered part of the proteome using SliMSearch4 (the disorder score cut-off was 0.4 and flank length was 5). In all, 22 motifs from this list were subjectively chosen and tested in the ratiometric degradation assay giving only 5 positives (see Supplementary Table S1). Based on the results of this first round, by taking information both from the identified positives and negatives, the consensus motif definition was narrowed to requiring a proline at P + 2, but motifs were allowed to have a phospho-mimicking residue (D or E) at P + 4 because it had been formerly reported that this second phosphorylatable residue may be replaced by aspartate or glutamate. […] In the third round, hydrophobic amino acids were more strictly required at positions −1/−2 and P − 1/2/3 positions were further narrowed and P + 4 position was relaxed based on the identified negatives, which gave a higher hit rate (4 out of 6). This third round gave functional motifs at a good rate, but the used motif definition was very restrictive compared to other known motifs. Finally, in the fourth round, we gave up using an optimal consensus and established the positional relaxation model. […] Hits on this final, most predictive list are presented in Supplementary Table S2. All entries were filtered for motif locations by UniProt annotations, discarding all enzyme-inaccessible (e.g., extracellular) instances. Motifs that had any overlapping PFAM domain indicated were manually assessed using the AlphaFold EBI website. Out of these, only motifs that were highly accessible and located outside of confidently predicted folded domains were kept. We also added kinase consensus compatibility to every motif and the number of experiments where phosphorylation could be detected from PhosphoSitePlus.
The chimera degron module was ordered from IDT as gene Block (gBlock). It consisted of a coiled coil dimerization motif (GCN4: EELLSKNYHLENEVARLKK) to increase sensitivity by allowing multivalent binding, a MAPK binding docking motif (AAKG2: KKNASQKRRSLRVHIPDL), and the CycECO degron motif. The motifs were separated by Gly-Ser-Asn linkers and the gBlock was designed so that the motifs could be easily changed by using unique sets of restriction endonucleases. The gBlock was sub-cloned into the Gateway pENTR4 entry plasmid (Thermo Fisher, Waltham, MA, USA) using restriction enzymes (SalI and NotI). The pENTR4-chimera and the destination plasmid (MSCV-CMV-DsRed-IRES-EGFP-DEST from Addgene; 41941), [28]) were subjected to gateway cloning using LR clonase II enzyme (Invitrogen) to obtain the first DsRed-EGFP-chimera DNA construct containing the cycECO degron. Oligonucleotides corresponding to different degron sequences and docking motifs were ligated into the DsRed-EGFP-chimera DNA construct. The list of all the oligonucleotides used for cloning is provided in Supplementary Table S3. pcDNA3-FLAG-FBXW7α was a kind gift from Michael Pagano (New York University). The FBXW7 arginine mutant (Arg mutant: R465C; R479Q; R505L) was created using two-step PCR and cloned into the pcDNA3-FLAG plasmid. […]

[2] = test system: FBXW7-mediated protein degradation; experiment: Western blot of protein levels in FBXW7-transfected cells; type: cell-based, HEK293T cells
Description: as §1, with “concentration.” for “concentration. HEK293T cells were washed with 500 μL ice-cold PBS twice and gently collected using a pipette 48 h after transfection. The suspension was centrifuged at 500× g for 10 min at 4 °C. After centrifugation, the cell pellet was resuspended in 110 µL ice cold PBS and the fluorescence signal for EGFP (Excitation 485 nm; Emission 515 nm) and DsRed (Excitation 550 nm; Emission 580 nm) was measured in Corning 384-well microplate (#4514) using a plate reader (CytationTM 3, BioTek Instruments, Winooski, VT, USA).”

Skp1-FBXW7 complex = biological target: T1, Skp1-FBXW7 complex (Homo sapiens, UniProt P63208+Q969H0); experiment: Fluorescence polarization direct titration of labeled CCNE peptide; type: binding; conditions: FP direct titration, 50 nM CF-labeled CCNE peptide with increasing Skp1-FBXW7; 20 mM Tris pH 8.0, 100 mM NaCl, 0.05% Brij35P, 2 mM TCEP; value printed in plot
T1 construct: human FBXW7 (263-707) with an N-terminal hexa-histidine (His6) tag; His6 (N, cleaved yes); made in house; host or cells: E. coli Rosetta (DE3)
Description: Truncated Skp1 (1-149) and human FBXW7 (263-707) with an N-terminal hexa-histidine (His6) tag were cloned into a bicistronic plasmid (pMG950) and were co-expressed in E. coli Rosetta (DE3) strain. The Skp1-FBXW7 complex was purified using affinity, anion exchange, and gel filtration chromatography. The DNA expression plasmid was transformed into E. coli Rosetta (DE3) strain and grown in LB until OD600 = 0.5, protein expression was induced with 100 µM isopropyl-β-d-1-thigalatopyaranoside (IPTG) overnight at 18 °C. The cell pellet was lysed, and the recombinant protein was purified using Ni-NTA agarose beads. Before further purification the His6-tag was removed by using the TEV protease and then the protein complex was further purified using anion exchange chromatography twice, first with a Resource Q and then with a Mono Q column (pH = 8). Finally, the complex was subjected to size-exclusion chromatography in 20 mM Tris, pH = 8, 150 mM NaCl, and 1 mM DTT using a Superdex200 10/300 column (GE Healthcare, Chicago, IL, USA). The eluted fractions were pooled together and were supplemented with 10% glycerol and 2 mM TCEP before concentration and storage. […]

T1 sequence (Q969H0 263-707): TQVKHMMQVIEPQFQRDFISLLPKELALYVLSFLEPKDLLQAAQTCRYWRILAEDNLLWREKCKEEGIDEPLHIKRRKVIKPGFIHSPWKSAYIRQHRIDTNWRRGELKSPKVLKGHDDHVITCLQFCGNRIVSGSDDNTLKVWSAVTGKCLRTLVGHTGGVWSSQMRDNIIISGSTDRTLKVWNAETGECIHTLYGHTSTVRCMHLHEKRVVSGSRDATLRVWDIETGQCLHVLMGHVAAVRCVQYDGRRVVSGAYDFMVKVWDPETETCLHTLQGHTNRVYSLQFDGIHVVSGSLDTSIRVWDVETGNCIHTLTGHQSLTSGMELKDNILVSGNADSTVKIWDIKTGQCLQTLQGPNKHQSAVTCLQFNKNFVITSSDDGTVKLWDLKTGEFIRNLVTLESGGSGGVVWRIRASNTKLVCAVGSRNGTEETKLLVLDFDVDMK
T1 sequence (P63208 1-149 partner limits assumed): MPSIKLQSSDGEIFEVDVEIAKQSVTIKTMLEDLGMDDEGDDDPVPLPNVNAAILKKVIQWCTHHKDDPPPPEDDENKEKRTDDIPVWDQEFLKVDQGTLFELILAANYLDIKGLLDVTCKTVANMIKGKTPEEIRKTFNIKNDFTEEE

Structure (SMILES): Cc1cnc(-c2cnc(NCCNc3ccc(C#N)cn3)nc2-c2ccc(Cl)cc2Cl)[nH]1 [CHR99021]
effect on FBXW7-mediated degradation of full-length constructs ([1]; HEK293T, inhibitor 2 µM added 6 h before DsRed/EGFP measurement): no effect

Structure (SMILES): Cc1cc(NC(=O)c2cccc(NC(=O)/C=C/CN(C)C)c2)ccc1Nc1nccc(-c2cccnc2)n1 [JNK-IN-8]
effect on ARID4B level ([1]; full-length ARID4B, HEK293T + FBXW7, inhibitor 2 µM, 6 h): significant effect
ZMIZ1 level ([1]; 6 h): affected

Structure (SMILES): CC(C)C[C@@H](C=O)NC(=O)[C@H](CC(C)C)NC(=O)[C@H](CC(C)C)NC(=O)OCc1ccccc1 [MG132] (Cbz-Leu-Leu-Leu-aldehyde)
CycEco-EGFP probe degradation (FBXW7): blocked
protein level of the CycECO-V5 probe ([2]; HEK293T transfected with FBXW7 plasmid, MG132 10 µM, anti-V5 western blot): counteracted the effect of FBXW7 expression
protein levels of full-length constructs in the presence of FBXW7 ([2]; KLF4, ETV5, ARID4B, CDT1, ZMIZ1, JAZF1 V5-tagged constructs, HEK293T, MG132 10 µM, western blot): counteracted the effect of FBXW7

The next lines start with results.

degradation of JAZF1 ([1]; full-length JAZF1, HEK293T + FBXW7, inhibitor 2 µM, 6 h): lower
ZMIZ1 level ([1]; 6 h): affected
Structure (SMILES): Oc1ccc(-c2nc(-c3ccncc3)c(-c3ccc(F)cc3)[nH]2)cc1 [SB202190]
FBXW7-mediated degradation of the JAZF1-SUZ12 fusion construct ([2]; HEK293T co-transfected with Fusion WT and FBXW7, inhibitor 2 µM, anti-Myc western blot): counteracted

ZMIZ1 level ([1]; 6 h): affected
Structure (SMILES): O=C(Nc1ccc2[nH]nc(-c3ccncc3)c2c1)[C@@H]1CCN(CC(=O)N2CCN(c3ccc(-c4ncccn4)cc3)CC2)C1 [SCH772984]

Kd (Skp1-FBXW7 complex): 2.8 ± 1.6 nM
Structure (SMILES): CC(C)C[C@H](NC(=O)CNC(=O)[C@H](CO)NC(=O)[C@@H]1CCCN1C(=O)c1ccc2c(c1)C(=O)OC21c2ccc(O)cc2Oc2cc(O)ccc21)C(=O)N[C@@H](CC(C)C)C(=O)N[C@H](C(=O)N1CCC[C@H]1C(=O)N1CCC[C@H]1C(=O)N[C@@H](CCC(N)=O)C(=O)N[C@@H](COP(=O)(O)O)C(=O)NCC(=O)N[C@@H](CCCCN)C(=O)N[C@@H](CCCCN)C(=O)N[C@@H](CCC(N)=O)C(=O)O)[C@@H](C)OP(=O)(O)O [fluorescently labeled CCNE peptide] (5FAM-PSGLL[pT]PPQ[pS]GKKQ-OH)

Source: publication PMC8955265, “Systematic Discovery of FBXW7-Binding Phosphodegrons Highlights Mitogen-Activated Protein Kinases as Important Regulators of Intracellular Protein Levels” (International Journal of Molecular Sciences, 2022)
